Measurements taken from patent US7507727B2, “Substituted quinobenzoxazine analogs and methods of using thereof” (Cylene Pharmaceuticals, Inc., priority 2003, dated 2009).
“And” between values parts separate entries of the source, which are not always exact repeats. Identical values can stand only once. Like-named read-outs stand apart in the source and are kept apart here.

Columns and labels:
[1] = tested on: Salmonella typhimurium (TA97a, TA98, TA100, TA102, TA1535); conditions: positive control
Description: This Mutagenicity Assessment (Ames Assay) evaluated the potential of the test article extracts to induce histidine (his) reversion in S. typhimurium (his− to his+) or tryptophan (trp) reversion in E. coli (trp− to trp+) caused by base changes or frameshift mutations in the genome of tester organisms.
This plate incorporation assay was conducted with five strains of Salmonella typhimurium (TA97a, TA98, TA100, TA102, and TA1535) and one strain of Escherichia coli (WP2-uvrA^−) in the presence and absence of an exogenous mammalian activation system (S9). The test article was dissolved in 5% dextrose. A series of dilutions were then prepared in saline just prior to testing. A Range Finding Study was conducted for this assay to determine the appropriate doses for definitive mutagenicity assessment.
A stock solution of test article was prepared at 20.0 mg/mL as follows: 1.0 g test article was added to 15.0 mL of 0.1 HCl for 1 minute. The test article was stirred for 15 minutes at room temperature. Next 33.0 mL of deionized water was added and allowed to stir for 30 minutes. […] Lower doses were prepared by dilution in 5% dextrose from this stock immediately prior to use. To minimize any change of degradation, the test article solutions were kept on ice after preparation and until just prior to dosing procedures. The test article was administered in vitro, through a solvent compatible with the test system.
This assay has historically been used to detect mutation in a gene of a histidine requiring strain to produce a histidine independent strain or concordantly, to detect mutation in a gene of a tryptophan requiring strain to produce a tryptophan independent strain.
S. typhimurium strain TA1535 and E. coli strain Wp2-uvrA^− were received from American Type Culture Collection, Manassas, Va. […] All working stocks of test strains will be confirmed for genotypic markers and acceptable reversion rates.
Master plates of the tester strains were prepared from frozen working stocks. To create working cultures for each bacterial strain used in the assay, a single colony was transferred from the master plate into Oxoid nutrient broth and incubated, with shaking, at 37±2° C. until an optical density (at 650 nm) of 0.6-1.6 was reached. This overnight culture was used for the mutagenicity test and for genotypic confirmation. Genotype tests were performed.
For both the dose range and mutagenicity test, a top agar consisting of 0.6% Difco agar in 0.5% NaCl was melted and a solution of 0.5 mM L-histidine/0.5 mM biotin or 0.5 mM L-tryptophan was added to the melted top agar at a ratio of 10 mL per 100 mL agar, as required. The supplemented agar was aliquotted, 2 mL per tube and held at 45-47° C. To prepare the top agar for treatment, 0.1 mL of the test article or control, 0.1 mL of the bacterial culture and 0.5 mL of phosphate buffered saline were added to the molten agar. […] Metabolic activation was provided by adding 0.5 mL of the S9 mix in place of the PBS. […] All plates were counted using an automatic image analysis system. Negative control and test article treated plates were also examined for the presence of a bacterial lawn.
The in vitro metabolic activation system used in this assay was comprised of Sprague Dawley rat liver enzymes and a cofactor pool. […] Immediately prior to use, the S9 was thawed and mixed with a cofactor pool to contain 5% S9, 5 mM glucose 6-phosphate, 4 mM β-nicotine-adenine dinucleotide phosphate, 8 mM MgCl2 and 33 mM KCl in a 200 mM phosphate buffer at pH 7.4. The S9 was purchased from Moltox (Boone, N.C.) and maintained frozen at less than −70° C.
For the definitive assay, three dose levels were chosen ([…], and 5.0 mg/mL). This was equivalent to 2.0, 1.0, and 0.5 mg/plate. All treatments, including negative and positive control, were plated in triplicate against test strains TA97a, TA98, TA100, TA102, TA1535, and WP2-uvrA^− in the presence and absence of metabolic activation.

HCT-116 cells = test: Annexin V-Alexa 488 staining; type: cell-based; conditions: 0.5 uM, control
Description: The following protocol was followed for this example. […] Incubate o/n or up to 24 hrs at 37° C. in CO2 incubator. […] Keep one or two untreated plates (medium only) as control plates. […] Harvest cells (collect attached as well as floating cells). Wash cells twice with cold PBS. Re-suspend cells in 1× Annexin binding buffer.
Count cells and dilute in 1× Annexin binding buffer to ˜1×10^6 cells/0.1 ml, preparing a sufficient volume to have 100 μl per assay. Add 5 μl of the Annexin V conjugate to each 100 μl of cell suspension. Add 4 μl of propidium iodide solution (stock=1 mg/ml) to each 100 μl of cell suspension. Incubate sample at RT for 15 minutes. Add 400 μl Annexin binding buffer, mix gently and keep samples on ice. Analyze stained cells immediately by flow cytometry.

[2] = tested on: Chinese Hamster Ovary Cells (CHO); test: In vitro chromosome aberration assay (incl. mitotic index); type: cell-based
HeLa cells = test: MTS cell proliferation and/or cytotoxicity assay; type: cell-based, Human; conditions: Homo sapiens, HeLa
In short: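 HeLa cells seeded at 4,500 cells/well, exposed to compounds from day 1 for 3 days at 37 °C, 5% CO2. Viability by MTS/PMS (20:1) with 4 h incubation, absorbance at 490 nm. Values are concentrations giving 50% antiproliferative response.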

HCT-116 xenograft = test: HCT-116 colorectal cancer xenograft model; type: in vivo; conditions: HCT-116 model; FIG. 6
Description: (§1) Two xenograft models for inoculation were harvested and diluted to a concentration of 50×10^6 cells/ml or 100×10^6 cells/ml. Four to six week old nude mice were injected with 0.1 ml of the cell suspension containing between 5×10^6 and 10×10^6 cells. When tumors are of a suitable size compound dosing is commenced. Tumor sizes are measured throughout the treatment period with calipers and body weights also measured.
CX-3543 was tested against a number of cancer xenograft models to determine the in vivo efficacy. HCT-116 and PC-3 tumor-bearing nu/nu or MiaPaCa tumor-bearing SCID mice were administered reference and testing compounds on schedules indicated in figure legends. Tumor measurements were taken with calipers every other day or twice a week starting from the first day of dosing and body weights were measured at the same time points. Tumor volumes were calculated from the standard formula, W^2×L/2. c-MYC mRNA expression was measured with QPCR from all tumor samples following the final dose. 18S ribosomal RNA was used as a housekeeper and also quantified with QPCR.

[3] = biological target: c-Myc template DNA (c-myc quadruplex); test: Quadruplex binding / stop assay (Taq polymerase arrest, capillary electrophoresis)
Ramos xenograft = test: Ramos Burkitt's lymphoma xenograft model; type: in vivo; conditions: FIG. 5
Description: as §1

HCT-116 = test: Cell proliferation/cytotoxicity in HCT-116 (Table 1D); type: cell-based; conditions: Homo sapiens; HCT-116 cells; unit inferred
topoisomerase II = test: Topoisomerase-II poison assay; type: biochemical; conditions: 1 μM; control Topoisomerase-II poison
From the text: FIG. 7 illustrates data from a toposiomerase-II poison assay, using VP-16 (Etoposide) as a control Topoisomerase-II poison.

[4] = CHO, positive control high dose (H)
[5] = CHO, positive control low dose (L)
[6] = CHO, positive control low dose (L), 20 hrs
[7] = read-out: S DATA, Table 1D, stop assay data
[8] = HeLa cells, MTS, read-out: Hela MTS

Nc1ccc2cc3ccccc3cc2c1 [2-AA]
FI ([1]; TA100, with S9 activation): 6.8 | TA100 colony count (Rep 1-3) ([1]; TA100, with S9 activation): 655 and 857 and 949 | TA100 colony count, Mean ([1]; TA100, with S9 activation): 820.3

CC[C@@]1(O)C(=O)OCc2c1cc1n(c2=O)Cc2cc3ccccc3nc2-1 [CPT]
Annexin V / duplex DNA dye response (HCT-116 cells): mixed apoptotic/necrotic response

CO[C@@]12[C@H](COC(N)=O)C3=C(C(=O)C(C)=C(N)C3=O)N1C[C@@H]1N[C@@H]12 [MMC]
% CA 3 HRS [2, 4]: 42.0% | FI 3 HRS [2, 4]: 14.0 | % CA 3 HRS [2, 5]: 20.3% | FI 3 HRS [2, 5]: 6.8 | % CA 20 HRS [2, 6]: 26.5% | FI 20 HRS [2, 6]: 8.8 | % MI 20 HRS ([2]; average mitotic index, positive control low dose (L), 20 hrs): 5% | % MI ([2]; average mitotic index, positive control low dose (L), first column (time not given)): 6%

[N-]=[N+]=[N-] [Sodium Azide]
FI ([1]; TA100, without S9 activation): 4.9 | TA100 colony count (Rep 1-3) ([1]; TA100, without S9 activation): 615 and 631 and 702 | TA100 colony count, Mean ([1]; TA100, without S9 activation): 649.3

O=C(NCCN1CCCC1)c1cn2c3c(c(NCCCN4CCOCC4)c(F)cc3c1=O)Oc1cc3ccccc3cc1-2 [compound 494]
IC50 (HeLa cells; 72 h, concentration at which 50% of antiproliferative cell response is seen, 3 days incubation, read-out: MTS Data Hella): 190 nM | antitumor activity: efficacy (HCT-116 xenograft): slow tumor weight gain | toxicity (body weight) (HCT-116 xenograft): little body weight change | IC50 ([3]; read-out: Stop Data c-Myc μM, concentration at which 50% of the DNA was arrested (arrested:full-length 1:1)): 0.44 µM

CN1CCN(CCCNCCC(=O)N[C@@H]2CCN(c3c(F)cc4c(=O)c(C(=O)N5CCOCC5)cn5c4c3Oc3cc4c(cc3-5)oc3ccccc34)C2)CC1 [compound 1204]
antitumor activity: efficacy (Ramos xenograft): slow tumor weight gain | toxicity (body weight) (Ramos xenograft): little body weight change

CN1CCCC1CCNC(=O)c1cn2c3c(c(N[C@H]4CN5CCC4CC5)c(F)cc3c1=O)Oc1cc3ccccc3cc1-2 (some centres unmarked) [compound 1496]
IC50 (HCT-116): 340 nM | IC50 [3, 7]: 0.375 µM

O=C(NCCN1CCCC1)c1cn2c3c(c(SCCc4ccccn4)c(F)cc3c1=O)Oc1cc3ccccc3cc1-2 [compound 1782]
IC50 (HeLa cells; [8]): 2100 nM | IC50 [3, 7]: 3.3 µM

O=C(NCCN1CCCC1)c1cn2c3c(c(N4CCC(c5cnccn5)C4)c(F)cc3c1=O)Oc1ccc(Cl)cc1-2 (centres unmarked) [compound 1795]
IC50 (HeLa cells; [8]): 500 nM | IC50 [3, 7]: 2.9 µM

NC1CCN(c2c(F)cc3c(=O)c(C(=O)NCCN4CCCC4)cn4c3c2Oc2cc(Cl)ccc2-4)C1 (centres unmarked) [compound 1800]
IC50 (HeLa cells; [8]): 180 nM | IC50 [3, 7]: 2.6 µM

O=C(NCCN1CCCC1)c1cn2c3c(c(N4CCC(c5cnccn5)C4)c(F)cc3c1=O)Oc1cc(Cl)ccc1-2 (centres unmarked) [compound 1811]
IC50 (HCT-116): 200 nM | IC50 [3, 7]: 2.8 µM

O=C(NCCN1CCCC1)c1cn2c3c(c(NCCCN4CCOCC4)c(F)cc3c1=O)Oc1cc(Cl)ccc1-2 [compound 1816]
IC50 (HCT-116): 30 nM | IC50 [3, 7]: 5 µM

CC(C)(C)OC(=O)N1CCN(c2c(F)cc3c(=O)c(C(=O)NCCN4CCCC4)cn4c3c2Oc2cc(Cl)ccc2-4)CC1 [compound 1818]
IC50 (HCT-116): 40 nM | IC50 [3, 7]: 2.9 µM

O=C(NCCN1CCCC1)c1cn2c3c(c(N4CCNCC4)c(F)cc3c1=O)Oc1cc(Cl)ccc1-2 [compound 1820]
IC50 (HCT-116): 30 nM | IC50 [3, 7]: 8.2 µM

CC(C)CN1CCN(c2c(F)cc3c(=O)c(C(=O)NCCN4CCCC4)cn4c3c2Oc2cc(Cl)ccc2-4)CC1 [compound 1826]
IC50 (HCT-116): 30 nM | IC50 [3, 7]: 7.5 µM

CCN1CCN(c2c(F)cc3c(=O)c(C(=O)NCCN4CCCC4)cn4c3c2Oc2cc(Cl)ccc2-4)CC1 [compound 1827]
IC50 (HCT-116): 10 nM | IC50 [3, 7]: 4.8 µM

COc1ccc(CN2CCN(c3c(F)cc4c(=O)c(C(=O)NCCN5CCCC5)cn5c4c3Oc3cc(Cl)ccc3-5)CC2)cc1 [compound 1828]
IC50 (HCT-116): 100 nM | IC50 [3, 7]: 7.5 µM

VP-16
topoisomerase-II mediated DNA cleavage (topoisomerase II): formation of double-strand breaks
